“Also recorded” adds a separate entry of the source. Blank lines part the entries; values can stand above or below the compound they belong to.
Key:
Huh7 tumor cells = assay: In vivo fluorescence imaging following ICG administration in Huh7 xenograft mice; set-up: species or system immunodeficient mice; conditions: 0.5 mg/kg ICG dose, FIG. 32
Experimental: Other areas of high signal represents concentration within the intestinal lumen. Control mouse without tumor is shown on the left side.
Xenotransplantation of the following cell lines is performed: FLX1 (FLC), Huh-7 (HCC) and HepG2 (well-differentiated HCC) in immunodeficient mice. […] Therefore, the dose is escalated to an appropriate level. Even though the majority of the models use HCC cells, the findings are applicable to FLC since FLC also has the ability to retain ICG (FIGS. 31A-31D). Currently, there is only one readily available FLC cell line, which also has the property to be engrafted in an immunodeficient mouse model.

FLC tumor tissue = assay: Gross and microscopic ICG localization in FLC patients (near-infrared fluorescence at surgery); format: in vivo, patient; conditions: intravenous ICG 48 hours prior to surgery, FIGS. 31A-31D
Experimental: ICG is administered several days prior to surgery, which subsequently is cleared from the blood and normal liver but is retained in tumor tissue. At the time of surgery, a near-infrared camera is used to identify ICG retaining tumor tissue since it fluoresces in response to near-infrared wave.^22,23 The use of ICG for localization of HCC and hepatoblastoma has been reported^16-18,21,22,30 however, there are no published reports regarding its use in FLC. […] The MDR3 transporter, which is responsible for export of ICG into the bile canaliculi is also expressed in tumor cells, albeit at lower levels.

[1] = In vivo biodistribution of 18F-SFB-ICG in wild type mice by whole body PET/CT; set-up: species or system female C57BL/6 mice
Experimental: (§1) The study was comprised of female C57BL/6 mice (n=4, 20.4+0.8 g, age 12.9 weeks). The modalities were whole body PET/CT and whole blood gamma counting which were performed on the mice using the imaging agent ^18F-SFB-ICG as outlined in Table 1. Briefly, the mice were imaged in a 2-bed imaging hotel with imaging agent administered intravenously while animals were on camera (volume dosed was maintained constant to keep mass dose constant). 1 hour dynamic PET data was acquired, followed by CT. A static 30 minute PET dataset was acquired at 4 hours, also followed by CT. A blood sample was taken immediately following each imaging time point for gamma counting.
PET/CT: PET images were co-registered to CT images and resampled to uniform voxel size (0.2 mm^3). The injected activity doses were normalized to the averaged activity in the field of view (FOV) in the final 6 frames of the dynamic scan (FOV-based normalization). The Regions of Interest (ROIs) were defined using various methods in VivoQuant software: A fixed volume ellipsoidal ROI was placed in the center of the heart, to encompass a volume of representative concentration for that region. The fixed volume sphere ROIs were placed in the center of the lobes of the lungs (2), and throughout the spleen (3) to encompass a volume of representative concentration for those regions. Based on the CT and PET, the following organs were segmented as completely as possible: liver, gallbladder, small intestines, cecum, and large intestines. The activity concentration was reported as Standardized Uptake Value (SUV), equating to the […]. For fully segmented organs, uptake was also reported in percentage injected dose (% ID). FIGS. 17A-17D show resulting PET/CT images of a representative wild type mouse.

[2] = Whole blood gamma counting after 18F-SFB-ICG injection; format: in vivo, female C57BL/6 mice; conditions: FIG. 24B
Experimental: as §1
Gamma Counting: Whole blood samples were collected after each imaging session for ex vivo radioactivity analysis by gamma counting. Triplicates of ^18F-SFB-ICG were also counted to calculate an efficiency factor from which counts could be converted to units of activity (μCi). The sample activities were corrected for background radiation and decay-corrected to the injection time. The tissue volumes were estimated through measurement of sample weights, and blood activity was reported as % ID/g and SUV.

[3] = [18F]SFB-ICG stability by HPLC (RCP); format: physicochemical
Experimental: FIGS. 11A-11B show HPLC traces of [^18F]SFB-ICG stability at 1 hour, and 2 hours.

Structure (SMILES): CC1(C)C(/C=C/C=C/C=C/C=C2\N(CCCCS(=O)(=O)O)c3ccc4ccccc4c3C2(C)C)=[N+](CCCCS(=O)(=O)[O-])c2ccc3ccccc3c21 [ICG, indocyanine green]
uptake by implanted Huh7 tumor cells (Huh7 tumor cells): demonstrate uptake; also recorded: ICG uptake by Huh7 tumor cells
ICG uptake/accumulation in FLC tumor tissue and metastases (FLC tumor tissue): accumulation of ICG in metastatic tumor bed; also recorded: fluorescence (white) within tumor cells; also recorded: accumulates in FLC; also recorded: ICG uptake by tumor tissue in the liver as well as metastatic deposits

PET signal in large intestines and cecum ([1]; time activity curves, FIGS. 18A-18B): not observed until the 4 hour time point
Structure (SMILES): CC1(C)C(/C=C/C=C/C=C/C=C2/N(CCCCCC(=O)NCCNC(=O)c3ccc([18F])cc3)c3ccc4ccccc4c3C2(C)C)=[N+](CCCCS(=O)(=O)[O-])c2ccc3ccccc3c21 [^18F-SFB-ICG]
tracer localization ([1]; at 4 hours post injection): most intense signal is present within the lumen of the intestines
tracer localization ([1]; by 5 minutes post injection): majority of the tracer is localized to the liver

time to evidence of excretion of the tracer into the gallbladder via the biliary system ([1]; IV, wild-type mice): ≤ 20 min
time to evidence of the tracer in the lumen of the small intestine ([1]; IV, wild-type mice): ≤ 45 min
signal intensity in the liver ([1]; at 4 hours post injection): decreased significantly
tracer localization ([1]; by 5 minutes post injection): predominantly localized to the liver
percentage of injected dose localized to the cecum ([1]; cecum, at 4 hours, IV, wild-type mice): approximately 30 % ID
percentage of injected dose localized to the liver ([1]; by 10 minutes, IV, wild-type mice, FIG. 18B): ~70%
percentage of injected dose localized to the liver ([1]; by 4 hours, IV, wild-type mice): about 40 % ID
activity present in whole blood ([2]; 1 hour): 2-2.5 % ID
activity present in whole blood ([2]; 4 hours): 1 % ID
Structure (SMILES): CC1(C)C(/C=C/C=C/C=C/C=C2/N(CCCCCC(=O)NCCNC(=O)c3ccc([18F])cc3)c3ccc4ccccc4c3C2(C)C)=[N+](CCCCS(=O)(=O)[O-])c2ccc3ccccc3c21 [[^18F]ICG]
tracer localization ([1]; at 4 hours post injection): majority of the tracer is localized to the lumen of the intestines
uptake by other organs via the circulation ([1]; organs other than liver): no significant uptake by any other organs
tracer localization ([1]; time 0 post injection): localized to the heart and the major vessels

RCP (stability) ([3]; at 1 hour): 95%
RCP (stability) ([3]; at 2 hours): 96%
Structure (SMILES): CC1(C)C(/C=C/C=C/C=C/C=C2/N(CCCCCC(=O)NCCNC(=O)c3ccc([18F])cc3)c3ccc4ccccc4c3C2(C)C)=[N+](CCCCS(=O)(=O)[O-])c2ccc3ccccc3c21 [[^18F]SFB-ICG]
